Earlier results, collected in US8877698B2, “Method and composition for disinfecting hard surfaces” (priority 2001, dated 2014).

Tested on: poliovirus

Q: Which “minimum concentration required to inactivate poliovirus” value does the source give for `CCO` [ethanol] here?
A: Its value is 70%.

Q: What about the “virucidal action against poliovirus” value of the same molecule?
A: The value was “little virucidal action”.
